# Source: PubChem BioAssay (NCI)
#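 48-hour exposure; five concentrations; linearly interpolated endpoints. The concentration for full growth arrest is given as TGI.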
# Experiments:
# Assay in all cases: inhibition of tumour cell growth, NCI panel, 48 h
# [1] = system: SW-620 colon
# [2] = system: 786-0 renal
# [3] = system: MOLT-4 leukemia
# [4] = system: OVCAR-8 ovarian
# [5] = system: A549 NSCLC
# [6] = system: UACC-257 melanoma
# [7] = system: LOX IMVI melanoma
# [8] = system: HT29 colon
# [9] = system: RXF 393 renal
# [10] = system: OVCAR-4 ovarian
# [11] = system: ACHN renal
# [12] = system: MDA-N
# [13] = system: NCI-H460 lung
# [14] = system: HCT-15 colon
# [15] = system: MDA-MB-231 breast
# [16] = system: OVCAR-3 ovarian
# [17] = system: SK-OV-3 ovarian
# [18] = system: U251 CNS
# [19] = system: SK-MEL-5 melanoma
# [20] = system: TK-10 renal
# [21] = system: HCT-116 colon
# [22] = system: SF-268 CNS
# [23] = system: SK-MEL-2 melanoma
# [24] = system: RPMI-8226 leukemia
# [25] = system: COLO 205 colon
# [26] = system: K-562 leukemia
# [27] = system: MCF7 breast
# [28] = system: T-47D breast
# [29] = system: NCI/ADR-RES ovarian
# [30] = system: UO-31 renal
# [31] = system: HCC-2998 colon
# [32] = system: M14 melanoma
# [33] = system: EKVX NSCLC
# [34] = system: NCI-H23 lung
# [35] = system: SF-295 CNS
# [36] = system: A498 renal
# [37] = system: SN12C renal
# [38] = system: OVCAR-5 ovarian
# [39] = system: SK-MEL-28 melanoma
# [40] = system: MDA-MB-435
# [41] = system: NCI-H522 lung
# [42] = system: CCRF-CEM leukemia
# [43] = system: HL-60(TB) leukemia
# [44] = system: PC-3 prostate
# [45] = system: SR leukemia
# [46] = system: CAKI-1 renal
# [47] = system: SNB-75 CNS
# [48] = system: MALME-3M melanoma
# [49] = system: HOP-62 NSCLC
# [50] = system: HS 578T breast
# [51] = system: SF-539 CNS
# [52] = system: NCI-H226 lung
# [53] = system: IGROV1 ovarian
# [54] = system: HOP-92 NSCLC
# [55] = system: UACC-62 melanoma
# [56] = system: SNB-19 CNS
# [57] = system: DU-145 prostate
# [58] = system: BT-549 breast
# [59] = system: KM12 colon
smiles,measurement,setting,value
O=C(NCCc1ccccc1)c1cc(/C=C/c2cc(O)ccc2O)ccc1O,TGI,[1],> 45.5 µM
same,TGI,[2],6.18 µM
same,TGI,[3],7.5 µM
same,TGI,[4],16.3 µM
same,TGI,[5],> 41.1 µM
same,TGI,[6],8.57 µM
same,TGI,[7],17.5 µM
same,TGI,[8],> 50 µM
same,TGI,[9],2.93 µM
same,TGI,[10],3.76 µM
same,TGI,[11],5.59 µM
same,TGI,[12],9.81 µM
same,TGI,[13],24.6 µM
same,TGI,[14],7.42 µM
same,TGI,[15],12.9 µM
same,TGI,[16],8.11 µM
same,TGI,[17],26.4 µM
same,TGI,[18],5.28 µM
same,TGI,[19],7.32 µM
same,TGI,[20],7.16 µM
same,TGI,[21],4.19 µM
same,TGI,[22],10.2 µM
same,TGI,[23],11.8 µM
same,TGI,[24],7.21 µM
same,TGI,[25],17.6 µM
same,TGI,[26],7.49 µM
same,TGI,[27],9.42 µM
same,TGI,[28],3.86 µM
same,TGI,[29],> 34.2 µM
same,TGI,[30],2.86 µM
same,TGI,[31],21.7 µM
same,TGI,[32],15.9 µM
same,TGI,[33],8.24 µM
same,TGI,[34],17.7 µM
same,TGI,[35],35.2 µM
same,TGI,[36],13.6 µM
same,TGI,[37],19 µM
same,TGI,[38],25.3 µM
same,TGI,[39],10.4 µM
same,TGI,[40],25.8 µM
same,TGI,[41],4.32 µM
same,TGI,[42],> 40.3 µM
same,TGI,[43],9.65 µM
same,TGI,[44],11.4 µM
same,TGI,[45],8.58 µM
same,TGI,[46],13.2 µM
same,TGI,[47],13.7 µM
same,TGI,[48],5.07 µM
same,TGI,[49],11.9 µM
same,TGI,[50],> 40.4 µM
same,TGI,[51],5.94 µM
same,TGI,[52],27.8 µM
same,TGI,[53],11.3 µM
same,TGI,[54],4.35 µM
same,TGI,[55],5.03 µM
same,TGI,[56],19.6 µM
same,TGI,[57],28.1 µM
same,TGI,[58],3.7 µM
same,TGI,[59],24.6 µM
Cc1cnc2c(c1)C(=O)N(c1ccc([N+](=O)[O-])cc1)S2(=O)=O,TGI,[1],> 100 µM
same,TGI,[2],> 100 µM
same,TGI,[3],> 100 µM
same,TGI,[4],> 100 µM
same,TGI,[5],> 100 µM
same,TGI,[6],> 100 µM
same,TGI,[7],> 100 µM
same,TGI,[8],> 100 µM
same,TGI,[10],> 100 µM
same,TGI,[11],> 100 µM
same,TGI,[12],> 100 µM
same,TGI,[13],> 100 µM
same,TGI,[14],> 100 µM
same,TGI,[15],> 100 µM
same,TGI,[16],> 100 µM
same,TGI,[17],> 100 µM
same,TGI,[18],> 100 µM
same,TGI,[19],> 100 µM
same,TGI,[20],> 100 µM
same,TGI,[21],> 100 µM
same,TGI,[22],> 100 µM
same,TGI,[23],> 100 µM
same,TGI,[24],> 100 µM
same,TGI,[25],> 100 µM
same,TGI,[27],> 100 µM
same,TGI,[28],> 100 µM
same,TGI,[29],> 100 µM
same,TGI,[30],> 100 µM
same,TGI,[31],> 100 µM
same,TGI,[32],> 100 µM
same,TGI,[33],> 100 µM
same,TGI,[34],> 100 µM
same,TGI,[35],> 100 µM
same,TGI,[36],> 100 µM
same,TGI,[37],> 100 µM
same,TGI,[38],> 100 µM
same,TGI,[39],> 100 µM
same,TGI,[40],> 100 µM
same,TGI,[41],> 100 µM
same,TGI,[42],> 100 µM
same,TGI,[43],> 100 µM
same,TGI,[44],> 100 µM
same,TGI,[45],99.2 µM
same,TGI,[46],> 100 µM
same,TGI,[47],> 100 µM
same,TGI,[48],63.4 µM
same,TGI,[49],> 100 µM
same,TGI,[50],> 100 µM
same,TGI,[51],> 100 µM
same,TGI,[52],78.5 µM
same,TGI,[53],> 100 µM
same,TGI,[54],> 100 µM
same,TGI,[55],> 100 µM
same,TGI,[56],> 100 µM
same,TGI,[57],> 100 µM
same,TGI,[58],> 100 µM
same,TGI,[59],> 100 µM
